This assay deals with T1, HDAC2 Human recombinant C-terminal FLAG-tag (Homo sapiens, UniProt Q92769).
T1 construct: FLAG (C); purchased BPS Bioscience 50052
In words: Measurement of HDAC2 enzyme inhibitory activity (HTRF). Format: biochemical. Particulars: recombinant HDAC2, H3K9ac peptide, 3 hours room temperature; read-out: HDAC2 IC50. Here is the method: Test Example 1: Measurement of HDAC2 Enzyme Inhibitory Activity
The HDAC2 enzyme inhibitory activity was measured by the method described in the following test example.
To each well of a 384-well plate (Corning, 4514), DMSO solution of the test compound was dispensed at 50 nL/well from a final concentration of 99 μM to 8 points (n=2) in the 3-fold dilution series using Echo555 (Beckman Coulter). 2.5 μl of 0.005 mg/mL recombinant enzyme HDAC2 (HDAC2 Human recombinant C-terminal FLAG-tag, BPS Bioscience, 50052) was added to each well, 2.5 μl of 0.6 μM H3K9ac peptide (Lys(Ac)9-Histone H3 (1-21)-GGK(Biotin), AnaSpec, 64361) was added, mixed, and reacted in a wet box at room temperature for 3 hours. 50 mM Tris HCL pH8.0, 137 mM sodium chloride, 2.7 mM potassium chloride, 1 mM magnesium chloride, 0.01% Tween20, and 0.1% BSA which were diluted with ultrapure water were used as a reaction buffer at this time. After the reaction, 5 μL of 10 μM SAHA (suberoylanilide hydroxamic acid) as a reaction terminator and the 5 μL of a mixture of 2.5 ng of H3K9me0 antibody (ActiveMotif, 61399) labeled in-house with europium cryptate (Cisbio, 65EUSABA) and 125 nM streptavidin-XL665 (Cisbio, 610SAXLA) as an HTRF (time-resolved fluorescence) reagent were added to each well, mixed, and allowed to stand in a wet box at room temperature for reaction. A detection buffer used at this time was 50 mM Tris HCL pH 8.0, 0.8 M potassium fluoride, and 0.1% BSA which were diluted with ultrapure water. After reacting for 2 hours or more, HTRF was measured using a multi-plate reader such as SpectraMax Paradigm (MOLECULAR DEVICE) or RUBYstar (BMG LABTECH). Ratio (665 nm/615-620 nm×10000) was calculated from the fluorescence values of two wavelengths, 615-620 nm and 665 nm, which were excited at 320-340 nm, and the energy transition was obtained.

A word on the IC50: it is the concentration that inhibits the measured activity by half.

T1 sequence (Q92769 whole entry): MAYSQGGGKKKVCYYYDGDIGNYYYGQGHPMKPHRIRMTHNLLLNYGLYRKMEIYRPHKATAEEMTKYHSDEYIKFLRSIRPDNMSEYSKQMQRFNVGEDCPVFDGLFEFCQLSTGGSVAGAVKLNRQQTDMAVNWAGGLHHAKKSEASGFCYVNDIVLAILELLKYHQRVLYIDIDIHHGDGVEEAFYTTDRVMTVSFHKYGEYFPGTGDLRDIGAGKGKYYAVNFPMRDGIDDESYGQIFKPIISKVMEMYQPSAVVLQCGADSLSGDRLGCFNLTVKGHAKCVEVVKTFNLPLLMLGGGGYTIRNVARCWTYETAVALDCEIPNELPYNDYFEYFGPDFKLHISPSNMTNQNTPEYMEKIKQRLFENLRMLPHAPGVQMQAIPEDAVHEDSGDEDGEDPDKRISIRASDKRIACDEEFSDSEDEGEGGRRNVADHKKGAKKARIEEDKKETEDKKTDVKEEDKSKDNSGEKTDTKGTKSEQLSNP

On to `Cc1cnc(C(=O)Nc2cc(-c3ccc(F)nc3)ccc2N)cn1` [Compound I-123], for which the IC50 was determined as 140 nM.
As for `Nc1ccc(-c2ccc(F)nc2)cc1NC(=O)c1cnc(-n2cncn2)cn1` [Compound I-128], the IC50 is 180 nM.
Take `C=Cc1ccc(C(=O)Nc2cc(-c3ccc(F)nc3)ccc2N)nc1` [Compound I-131]: the IC50 was found to be 180 nM.
As for `Cc1nnc(-c2ccc(C(=O)Nc3cc(-c4ccc(F)nc4)ccc3N)nc2)o1` [Compound I-133], the IC50 is 110 nM.
As for `Nc1ccc(-c2ccc(F)nc2)cc1NC(=O)c1cnc(CF)cn1` [Compound I-134], the figure is 210 nM; as for `Nc1ccc(-c2ccc(F)nc2)cc1NC(=O)c1ccc(OCC(F)(F)F)cn1` [Compound I-135], 470 nM.
On to `Cc1cnc(C(=O)Nc2cc(-c3cnn(C)c3)ccc2N)cn1` [Compound I-138], for which the half-inhibitory concentration (IC50) turned out to be 200 nM.
As for `COc1ccc(C(=O)Nc2cc(-c3cnn(C)c3)ccc2N)nc1` [Compound I-140], the figure is 220 nM; as for `Nc1ccc(-c2ccc(F)nc2)cc1NC(=O)c1ccc(OC(F)F)cn1` [Compound I-143], 390 nM.
Regarding `Nc1ccc(-c2ccc(F)nc2)cc1NC(=O)c1cnc(C(F)F)cn1` [Compound I-145], the IC50 came out at 340 nM.
For the compound `Cn1cc(-c2ccc(N)c(NC(=O)c3cnc(OC(F)F)cn3)c2)cn1` [Compound I-146], the IC50 is 380 nM.
For the compound `Cn1cc(-c2ccc(N)c(NC(=O)c3cnc(CF)cn3)c2)cn1` [Compound I-147], the IC50 came to 290 nM.
Take `COc1ccnc(C(=O)Nc2cc(-c3ccc(F)nc3)ccc2N)c1` [Compound I-150]: the IC50 worked out at 310 nM.
For `Nc1ccc(-c2ccc(F)nc2)cc1NC(=O)c1cnc(OCC(F)F)cn1` [Compound I-151], the IC50 is 220 nM.
Turning to `CC(C)c1ccc(C(=O)Nc2cc(-c3cnn(C)c3)ccc2N)nc1` [Compound I-153], the IC50 came to 210 nM.
With `Cc1ccc(C(=O)Nc2cc(-c3ccc(F)nc3)ccc2N)nc1` [Compound I-154], the IC50 came out at 120 nM.
`Cc1ccc(C(=O)Nc2cc(-c3cnn(C)c3)ccc2N)nc1` [Compound I-155]: the IC50 stood at 220 nM.
For `CC(C)Oc1ccc(C(=O)Nc2cc(-c3ccc(F)nc3)ccc2N)nc1` [Compound I-162], the IC50 was found to be 200 nM.
`CC(C)Oc1ccc(C(=O)Nc2cc(-c3cnn(C)c3)ccc2N)nc1` [Compound I-163]: the IC50 came out at 210 nM.
As for `CCOc1ccc(C(=O)Nc2cc(-c3ccc(F)nc3)ccc2N)nc1` [Compound I-164], the figure is 210 nM; as for `CCOc1ccc(C(=O)Nc2cc(-c3cnn(C)c3)ccc2N)nc1` [Compound I-165], 200 nM; as for `Cc1cnc(C(=O)Nc2nc(-n3cccc3)ccc2N)cn1` [Compound I-171], 430 nM.
With `CCc1ccc(C(=O)Nc2cc(-c3ccc(F)nc3)ccc2N)nc1` [Compound I-174] the figure was 120 nM; with `CCc1ccc(C(=O)Nc2cc(-c3cnn(C)c3)ccc2N)nc1` [Compound I-175], 170 nM.
Consider `CN(C)c1ccc(C(=O)Nc2cc(-c3ccc(F)nc3)ccc2N)nc1` [Compound I-176], for which the IC50 was found to be 79 nM.
Consider `CN(C)c1cnc(C(=O)Nc2cc(-c3ccc(F)nc3)ccc2N)cn1` [Compound I-178], for which the IC50 was found to be 46 nM.
As for `COCCOc1ccc(C(=O)Nc2cc(-c3cnn(C)c3)ccc2N)nc1` [Compound I-180], the IC50 was 210 nM.
For `CC(C)c1ccc(C(=O)Nc2cc(-c3ccc(F)nc3)ccc2N)nc1` [Compound I-181], the IC50 was 140 nM.
With `COCCOc1ccc(C(=O)Nc2nc(-n3cccc3)ccc2N)nc1` [Compound I-182] the figure was 350 nM.
Turning to `Nc1ccc(-c2ccc(F)nc2)cc1NC(=O)c1ccc2c(n1)OCO2` [Compound I-183], the IC50 was 48 nM.
With `Nc1ccc(-c2ccc(F)nc2)cc1NC(=O)c1ccc2c(n1)OCC(=O)N2` [Compound I-184], the IC50 is 49 nM.
Turning to `COC(=O)c1ccc(C(=O)Nc2cc(-c3ccc(F)nc3)ccc2N)nc1` [Compound I-185], the IC50 was 140 nM.
With `Nc1ccc(-c2ccc(F)nc2)cc1NC(=O)c1cc(F)ccn1` [Compound I-186] the figure was 490 nM; with `CC(C)(C)c1ccc(C(=O)Nc2cc(-c3ccc(F)nc3)ccc2N)nc1` [Compound I-191], 240 nM.
For the compound `Nc1ccc(-c2ccc(F)nc2)cc1NC(=O)c1ccc(CO)cn1` [Compound I-192], the 50% inhibitory concentration (IC50) came to 220 nM.
As for `CC(C)(O)c1ccc(C(=O)Nc2cc(-c3ccc(F)nc3)ccc2N)nc1` [Compound I-193], the figure is 170 nM; as for `Nc1ccc(-c2cncs2)cc1NC(=O)c1noc2ccccc12` [Compound I-195], 290 nM; as for `Cn1cc(-c2cc(C(=O)Nc3cc(-c4cncs4)ccc3N)no2)cn1` [Compound I-196], 55 nM.
On to `Cn1cc(-c2ccc(N)c(NC(=O)c3cc(-c4cnn(C)c4)on3)c2)cn1` [Compound I-197], for which the IC50 came out at 240 nM.
As for `Cn1cccc1-c1cc(C(=O)Nc2cc(-c3cncs3)ccc2N)no1` [Compound I-199], the figure is 200 nM; as for `Cn1cc(-c2ccc(N)c(NC(=O)c3ccc(C(C)(C)C)cn3)c2)cn1` [Compound I-201], 260 nM.
For the compound `CN(C)c1cnc(C(=O)Nc2cc(-c3cnco3)ccc2N)cn1` [Compound I-202], the IC50 came to 60 nM.
Regarding `CC(C)(C)c1cnc(C(=O)Nc2cc(-c3ccc(F)nc3)ccc2N)cn1` [Compound I-203], the IC50 turned out to be 240 nM.
As for `Cn1cc(-c2ccc(N)c(NC(=O)c3cnc(C(C)(C)C)cn3)c2)cn1` [Compound I-204], the IC50 was 340 nM.
In the case of `CN(C)c1cnc(C(=O)Nc2cc(-c3cncs3)ccc2N)cn1` [Compound I-205], the IC50 is 60 nM.
In the case of `Nc1ccc(-n2cccc2)nc1NC(=O)c1ccc(N2CCOCC2)cn1` [Compound I-206], the IC50 came to 500 nM.
As for `COCc1ccc(C(=O)Nc2cc(-c3cnn(C)c3)ccc2N)nc1` [Compound I-207], the IC50 amounted to 250 nM.
As to `COCc1ccc(C(=O)Nc2cc(-c3ccc(F)nc3)ccc2N)nc1` [Compound I-208], the IC50 stood at 150 nM.
As for `Cc1cnc(C(=O)Nc2cc(-c3ccc(F)nc3)ccc2N)c(F)c1` [Compound I-209], the figure is 150 nM; as for `Cc1ccc(C(=O)Nc2cc(-c3ccc(F)nc3)ccc2N)nc1F` [Compound I-210], 190 nM.
Take `CN(C)c1cnc(C(=O)Nc2nc(-n3cccc3)ccc2N)cn1` [Compound I-212]: the IC50 is 830 nM.
With `CN(C)c1cnc(C(=O)Nc2nc(-c3ccccc3)ccc2N)cn1` [Compound I-213] the figure was 310 nM; with `Cn1cc(-c2ccc(N)c(NC(=O)c3ccc4c(n3)OCO4)c2)cn1` [Compound I-216], 100 nM.
Regarding `Nc1ccc(-c2ccccc2)nc1NC(=O)c1ccc2c(n1)OCO2` [Compound I-217], the IC50 stood at 340 nM.
On to `COCc1cnc(C(=O)Nc2cc(-c3ccc(F)nc3)ccc2N)cn1` [Compound I-218], for which the IC50 is 150 nM.
With `COCc1cnc(C(=O)Nc2cc(-c3cnn(C)c3)ccc2N)cn1` [Compound I-219] the figure was 310 nM; with `CCN(C)c1cnc(C(=O)Nc2cc(-c3ccc(F)nc3)ccc2N)cn1` [Compound I-220], 50 nM; with `Nc1ccc(-c2ccc(F)nc2)cc1NC(=O)c1cnc(N2CCC2)cn1` [Compound I-221], 50 nM.
Regarding `Nc1ccc(-c2ccc(F)nc2)cc1NC(=O)c1cnc(N2CC(CO)(CCl)C2)cn1` [Compound I-222], the IC50 was 80 nM.
For `Nc1ccc(-c2ccc(F)nc2)cc1NC(=O)c1cnc(N2CC3(CCC3)C2)cn1` [Compound I-223], the IC50 is 90 nM.
Consider `Nc1ccc(-c2ccc(F)nc2)cc1NC(=O)c1cnc(N2CC(Cl)(CCO)C2)cn1` [Compound I-224], for which the IC50 was 100 nM.
With `Nc1ccc(-c2ccc(F)nc2)cc1NC(=O)c1cnc(N2CCC2(CO)CCl)cn1` (centres unmarked) [Compound I-225], the IC50 turned out to be 90 nM.
As for `CN(C)c1ccc(C(=O)Nc2nc(-n3cccc3)ccc2N)nc1` [Compound I-226], the figure is 450 nM.
Regarding `CN(C)c1cnc(C(=O)Nc2nc(-c3cnn(C)c3)ccc2N)cn1` [Compound I-228], the IC50 came out at 630 nM.
Take `COCCOc1cnc(C(=O)Nc2cc(-c3ccc(F)nc3)ccc2N)cn1` [Compound I-229]: the IC50 amounted to 130 nM.
Turning to `COCCOc1cnc(C(=O)Nc2cc(-c3cnn(C)c3)ccc2N)cn1` [Compound I-230], the IC50 stood at 250 nM.
Regarding `COCCOc1cnc(C(=O)Nc2nc(-c3ccccc3)ccc2N)cn1` [Compound I-231], the IC50 worked out at 850 nM.
As for `COCCOc1cnc(C(=O)Nc2nc(-n3cccc3)ccc2N)cn1` [Compound I-232], the IC50 is 320 nM.

(Values after US20230119479A1, “A HISTONE DEACETYLASE INHIBITOR HAVING A NITROGEN-CONTAINING AROMATIC HETEROCYCLYL GROUP” (SHIONOGI & CO., LTD., priority 2019, published 2023).)
